Assay results from patent publication US20150330991A1, “METHOD FOR IMPROVING TARGET AFFINITY OF PEPTIDE” (GWANGJU INSTITUTE OF SCIENCE AND TECHNOLOGY, priority 2012, published 2015).
Each block holds one molecule with its values, some of them ahead of it. Peptide text beside a SMILES is read from it.

What was measured:
ED-B protein = target: T1, ED-B protein (Homo sapiens, UniProt P02751); assay: SPR (BIAcore) binding strength assay on immobilized biotin-EDB; conditions: for Kd: read-out: KD = Koff/Kon
T1 construct: Biopanning on ED-B domain
T1 sequence (P02751 1271-1359 limits assumed): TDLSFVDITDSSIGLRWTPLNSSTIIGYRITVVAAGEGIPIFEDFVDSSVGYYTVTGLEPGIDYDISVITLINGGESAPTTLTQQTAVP
Procedure: The bipodal peptide binder found from BPB2EDB, BPB3EDB, and BPB4EDB maturation libraries were synthesized (Anygen, Korea). The affinity measurement was conducted using BIAcore X (Biacore AB, Uppsala, Sweden). 2,000 RU of biotin-EDB was allowed to flow on the streptavidin SA chip (Biacore) for immobilization. PBS (pH 7.4) was used as a running buffer, and kinetics at different concentrations was measured under a flow rate of 30 μl per minute. The affinity was calculated using BlAevaluation software (Biacore AB, Uppsala, Sweden).

streptavidin [1] = target: T2, streptavidin (Streptomyces avidinii, UniProt P22629); assay: Phage ELISA specificity to streptavidin versus BSA, ovalbumin and VEGF; format: binding; conditions: ovalbumin, VEGF coated wells
Procedure: In order to investigate specificities to streptavidin, of peptides (Strep_opti1 and Strep_opti2) obtained through sequencing, recombinant phages expressing these peptides were used to investigate specificities to streptavidin, BSA, ovalbumin, and VEGF. First, 5 μg/ml streptavidin, BSA, ovalbumin, and VEGF were put in a 96-well ELISA plate (50 μl per well), and then allowed to stand at 4° C. overnight. Next day, all the wells were washed three times with 0.1% PBST, and blocked at room temperature for 2 hrs using 2% BSA diluted with PBS. Then, the solution was discarded, followed by washing with 0.1% PBST three times. 800 μl of recombinant phages of each of Strep_opti1 and Strep_opti2 and 200 μl of 10% BSA were added thereto, and each 100 μl was dispensed into streptavidin, BSA, ovalbumin, and VEGF wells, followed by standing at 27° C. for 1 hr. After washing five times with 0.1% PBST solution, the HRP-conjugated anti-M13 antibody (GE Healthcare) was diluted to 1:1,000, and then the reaction was performed at 27° C. for 1 hr. After washing five times with 0.1% PBST, 100 μl of the TMB solution was dispensed into each well to induce a colorimetric reaction, and then the reaction was stopped by adding 100 μl of 1 M HCl. The absorbance was measured at 450 nm.

streptavidin [2] = target: T2, streptavidin; assay: SPR (BIAcore) binding assay of Strep_opti1 and control peptide on immobilized streptavidin; conditions: from KD values
Procedure: (§1) A streptavidin-binding peptide optimized peptide and an existing peptide were synthesized (Anygen). The affinity measurement was conducted using BIAcore X (Biacore AB, Uppsala, Sweden). Here, 2000 RU of streptavidin was allowed to flow on the CM5 chip (Biacore) for immobilization. PBS (pH 7.4) was used as a running buffer, and the kinetics at different concentrations was measured under a flow rate of 30 μl per minute. The affinity was calculated using BlAevaluation software (Biacore AB, Uppsala, Sweden).

VEGFR1 = VEGFR1 (Homo sapiens, UniProt P17948); assay: SPR (BIAcore) binding assay of VEGFR1_opti1 and control peptide on immobilized VEGFR1
Sequence of VEGFR1 (P17948 27-1338, species assumed): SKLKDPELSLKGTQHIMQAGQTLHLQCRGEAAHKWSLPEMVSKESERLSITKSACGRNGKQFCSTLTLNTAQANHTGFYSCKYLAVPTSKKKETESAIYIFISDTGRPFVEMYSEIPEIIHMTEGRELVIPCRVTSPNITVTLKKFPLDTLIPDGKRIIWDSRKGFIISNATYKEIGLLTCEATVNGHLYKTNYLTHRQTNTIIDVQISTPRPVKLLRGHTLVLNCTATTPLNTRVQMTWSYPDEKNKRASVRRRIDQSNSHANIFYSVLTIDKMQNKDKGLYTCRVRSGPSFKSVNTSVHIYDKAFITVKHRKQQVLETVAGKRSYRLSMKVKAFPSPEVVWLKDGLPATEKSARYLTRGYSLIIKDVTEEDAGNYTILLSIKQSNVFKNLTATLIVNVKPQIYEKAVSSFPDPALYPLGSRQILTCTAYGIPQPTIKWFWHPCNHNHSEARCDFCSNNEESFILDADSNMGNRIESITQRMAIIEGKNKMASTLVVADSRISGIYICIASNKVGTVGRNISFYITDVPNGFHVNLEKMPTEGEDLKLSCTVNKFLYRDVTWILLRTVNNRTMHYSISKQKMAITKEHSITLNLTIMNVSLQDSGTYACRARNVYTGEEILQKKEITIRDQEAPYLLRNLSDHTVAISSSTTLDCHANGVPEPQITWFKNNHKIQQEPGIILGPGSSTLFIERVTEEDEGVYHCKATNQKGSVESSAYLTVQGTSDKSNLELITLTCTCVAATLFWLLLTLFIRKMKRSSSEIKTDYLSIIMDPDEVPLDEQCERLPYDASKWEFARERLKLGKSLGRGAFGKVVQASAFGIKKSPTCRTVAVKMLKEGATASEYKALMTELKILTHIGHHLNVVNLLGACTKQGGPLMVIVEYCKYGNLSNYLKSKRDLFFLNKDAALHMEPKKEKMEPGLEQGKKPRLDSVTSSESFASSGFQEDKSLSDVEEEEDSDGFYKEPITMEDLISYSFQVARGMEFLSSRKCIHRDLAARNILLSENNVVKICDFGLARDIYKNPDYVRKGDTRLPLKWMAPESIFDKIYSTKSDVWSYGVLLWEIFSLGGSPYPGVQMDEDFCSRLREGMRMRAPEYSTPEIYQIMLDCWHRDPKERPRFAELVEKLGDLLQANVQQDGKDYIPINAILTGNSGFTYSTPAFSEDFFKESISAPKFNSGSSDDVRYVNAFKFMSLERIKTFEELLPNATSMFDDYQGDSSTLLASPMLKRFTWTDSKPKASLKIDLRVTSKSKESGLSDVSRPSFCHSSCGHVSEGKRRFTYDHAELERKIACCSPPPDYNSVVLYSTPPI
Procedure: as §1, with “VEGFR1-binding” for “streptavidin-binding”, “7000” for “2000”, “VEGFR1” for “streptavidin”

Molecule: CC(C)[C@H](NC(=O)[C@H](CCC(N)=O)NC(=O)[C@@H]1CCCN1C(=O)[C@H](Cc1c[nH]cn1)NC(=O)[C@H](C)NC(=O)CNC(=O)[C@H](CCCCN)NC(=O)[C@H](Cc1c[nH]c2ccccc12)NC(=O)[C@@H](NC(=O)[C@H](Cc1c[nH]c2ccccc12)NC(=O)[C@H](CCCCN)NC(=O)CNC(=O)[C@H](CC(N)=O)NC(=O)[C@H](CCC(=O)O)NC(=O)[C@H](Cc1c[nH]c2ccccc12)NC(=O)[C@@H](NC(=O)[C@H](Cc1c[nH]c2ccccc12)NC(=O)[C@H](CO)NC(=O)CNC(=O)CNC(=O)CNC(=O)[C@H](CCCCN)NC(=O)[C@H](CCC(=O)O)NC(=O)[C@H](Cc1ccccc1)NC(=O)[C@H](CCC(N)=O)NC(=O)[C@@H]1CCCN1C(=O)[C@H](Cc1c[nH]cn1)NC(=O)[C@H](CO)NC(=O)[C@@H](N)Cc1c[nH]c2ccccc12)[C@@H](C)O)[C@@H](C)O)C(=O)N[C@@H](CCCNC(=N)N)C(=O)O [Strep_opti1] (H-WSHPQFEKGGGSWTWENGKWTWKGAHPQVR-OH; N-terminus and C-terminus assumed)
specificity (phage ELISA absorbance at 450 nm) (streptavidin [1]): specifically bind to streptavidin | fold increase in affinity compared with control peptide WSHPQFEK (streptavidin [2]): 1223 fold

Molecule: GNQWFIGGGSWTWENGKWTWKGRIPKNR (VEGFR1_opti1)
SPR response increase (VEGFR1; at 5 μM peptide): 45 RU | fold increase in affinity versus control peptide (VEGFR1; from RU at 5 μM versus 200 μM): about 360 fold

Molecule: CC[C@H](C)[C@H](NC(=O)CNC(=O)[C@H](CCCCN)NC(=O)[C@H](Cc1c[nH]c2ccccc12)NC(=O)[C@@H](NC(=O)[C@H](Cc1c[nH]c2ccccc12)NC(=O)[C@H](CCCCN)NC(=O)CNC(=O)[C@H](CC(N)=O)NC(=O)[C@H](CCC(=O)O)NC(=O)[C@H](Cc1c[nH]c2ccccc12)NC(=O)[C@@H](NC(=O)[C@H](Cc1c[nH]c2ccccc12)NC(=O)[C@H](CO)NC(=O)CNC(=O)[C@@H](NC(=O)[C@H](C)NC(=O)[C@H](CO)NC(=O)[C@H](CO)NC(=O)[C@H](CS)NC(=O)[C@@H](N)Cc1c[nH]cn1)C(C)C)[C@@H](C)O)[C@@H](C)O)C(=O)N[C@H](C(=O)N[C@@H](CCCNC(=N)N)C(=O)N[C@@H](CC(C)C)C(=O)N[C@@H](CCC(=O)O)C(=O)N[C@@H](CCC(N)=O)C(=O)O)[C@@H](C)CC [BPB1EDB] (H-HCSSAVGSWTWENGKWTWKGIIRLEQ-OH; N-terminus and C-terminus assumed)
Kd (ED-B protein; SPR, target binding kinetics): 75 nM

Molecule: WSHPQFEKGGGSWTWENGKWTWKG TLIHPM [Strep_opti2]
specificity (phage ELISA absorbance at 450 nm) (streptavidin [1]): specifically bind to streptavidin

More lines, now with the values ahead:

fold increase in affinity compared with BPB1 (ED-B protein; through the optimization system): 21 fold
Molecule: CC[C@H](C)[C@H](NC(=O)CNC(=O)[C@H](CCCCN)NC(=O)[C@H](Cc1c[nH]c2ccccc12)NC(=O)[C@@H](NC(=O)[C@H](Cc1c[nH]c2ccccc12)NC(=O)[C@H](CCCCN)NC(=O)CNC(=O)[C@H](CC(N)=O)NC(=O)[C@H](CCC(=O)O)NC(=O)[C@H](Cc1c[nH]c2ccccc12)NC(=O)[C@@H](NC(=O)[C@H](Cc1c[nH]c2ccccc12)NC(=O)[C@H](CO)NC(=O)CNC(=O)[C@H](CCC(N)=O)NC(=O)[C@@H](NC(=O)[C@@H]1CCCN1C(=O)[C@H](CO)NC(=O)[C@H](CO)NC(=O)[C@H](CS)NC(=O)[C@H](CO)NC(=O)[C@@H](N)Cc1c[nH]cn1)[C@@H](C)CC)[C@@H](C)O)[C@@H](C)O)C(=O)N[C@H](C(=O)N[C@@H](CCCNC(=N)N)C(=O)N[C@@H](CC(C)C)C(=O)N[C@@H](CCC(=O)O)C(=O)N[C@@H](CCC(N)=O)C(=O)N[C@@H](CCC(N)=O)C(=O)N1CCC[C@H]1C(=O)O)[C@@H](C)CC [BPB4EDB] (H-HSCSSPIQGSWTWENGKWTWKGIIRLEQQP-OH; N-terminus and C-terminus assumed)

Koff (ED-B protein; SPR, target binding kinetics): 5.1 × 10^−4 S^−1 | Kon (ED-B protein; SPR, target binding kinetics): 3.0 × 10^4 M^−1S^−1 | Kd (ED-B protein; SPR, target binding kinetics): 16 nM
Molecule: CC[C@H](C)[C@H](NC(=O)CNC(=O)[C@H](CCCCN)NC(=O)[C@H](Cc1c[nH]c2ccccc12)NC(=O)[C@@H](NC(=O)[C@H](Cc1c[nH]c2ccccc12)NC(=O)[C@H](CCCCN)NC(=O)CNC(=O)[C@H](CC(N)=O)NC(=O)[C@H](CCC(=O)O)NC(=O)[C@H](Cc1c[nH]c2ccccc12)NC(=O)[C@@H](NC(=O)[C@H](Cc1c[nH]c2ccccc12)NC(=O)[C@H](CO)NC(=O)CNC(=O)[C@H](CCC(N)=O)NC(=O)[C@@H](NC(=O)[C@@H]1CCCN1C(=O)[C@H](CO)NC(=O)[C@H](CO)NC(=O)[C@@H](N)CS)[C@@H](C)CC)[C@@H](C)O)[C@@H](C)O)C(=O)N[C@H](C(=O)N[C@@H](CCCNC(=N)N)C(=O)N[C@@H](CC(C)C)C(=O)N[C@@H](CCC(=O)O)C(=O)N[C@@H](CCC(N)=O)C(=O)O)[C@@H](C)CC [peptide 3] (H-CSSPIQGSWTWENGKWTWKGIIRLEQ-OH; N-terminus and C-terminus assumed)
